From patent US20240101548A1, “HYDROXAMATE COMPOUND, PREPARATION METHOD THEREFOR AND APPLICATION THEREOF” (SHENZHEN CHIPSCREEN BIOSCIENCES CO., LTD., priority 2020, published 2024)
Where two headings read alike, the source gives them in different places.

Legend:
Format in all cases: cell-based, human
[1] = tested on: EPO-induced JAK2 signal pathway; experiment: EPO-induced proliferation of UT-7 cells (JAK2 signal); conditions: Homo sapiens, UT7; UT-7 cell proliferation, EPO 10 ng/mL, 72 hours; read-out: Inhibition activity IC50 on EPO-induced JAK2 signal pathway
In short: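 UT-7 cells (15000/well) stimulated with 10 ng/mL human recombinant EPO plus compound at final 0, 100, 1000 or 10000 nM, 72 h at 37° C., 5% CO2. Proliferation by alamarBlue fluorescence (Ex530/Em590); inhibition normalised to no-cytokine/no-compound (0) and EPO-only (100) wells, […] derived from dose-inhibition.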

[2] = tested on: IL-10-induced JAK1/TYK2 signal pathway; experiment: IL-10-induced JAK1/TYK2 signal pathway STAT3-Luc reporter gene assay in U2OS cells; conditions: U2OS cells, STAT3-Luc reporter, IL-10 10 ng/mL, read-out: Half inhibition dose (IC50) on IL-10-induced JAK1/TYK2 signal pathway
In short: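 U2OS cells co-transfected with IL-10R1-EGFP and STAT3-luciferase reporter plasmids; after 24 h, compound added (0–300 nM) for 6 h before 10 ng/mL human IL-10, then 24 h culture. Luciferase signal normalised to GFP for transfection efficiency; IC50 from inhibition rates.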

[3] = tested on: IL-2-induced JAK1/JAK3 signal pathway; experiment: IL-2-induced proliferation of KHYG-1 cells (JAK1/JAK3 signal); conditions: Homo sapiens; KHYG-1 cell proliferation, IL-2 10 ng/mL, 72 hours; read-out: Inhibition activity IC50 on IL-2-induced JAK1/JAK3 signal pathway
In short: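 KHYG-1 NK lymphoma cells were cultured with IL-2 and test compound at various doses for 72 h at 37 °C and 5% CO2, and proliferation was read with alamarBlue fluorescence. Inhibition was normalized to wells without compound or cytokine (0%) and IL-2 wells without compound (100%), and C50 was derived from the dose-inhibition data.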

Row | SMILES | IC50 ([2]; Homo sapiens, U2OS) | IC50 [2] | IC50 [1] | IC50 [3]
1 | CCONC(=O)c1cnc(Nc2cnccn2)cc1Nc1ccc(N2CCOCC2)cc1N(C)S(C)(=O)=O [Example 136, N-ethoxy-4-((2-(N-methylmethanesulfonamido)-4-morpholinophenyl)amino)-6-(pyrazin-2-ylamino)nicotinamide] | 0.00249 µM | – | > 10 µM | > 10 µM
2 | C#Cc1ccc(Nc2cc(Nc3cccc(F)n3)ncc2C(=O)NOCC)c(N(C)S(C)(=O)=O)c1 [Example 143, N-ethoxy-4-((4-ethynyl-2-(N-methylmethanesulfonamido)phenyl)amino)-6-(6-fluoropyridin-2-ylamino)nicotinamide] | 0.000496 µM | – | > 10 µM | > 10 µM
3 | C#Cc1ccc(Nc2cc(Nc3ccc(F)cn3)ncc2C(=O)NOCC)c(N(C)S(C)(=O)=O)c1 [Example 144, N-ethoxy-4-((4-ethynyl-2-(N-methylmethanesulfonamido)phenyl)amino)-6-(5-fluoropyridin-2-ylamino)nicotinamide] | 0.000969 µM | – | > 10 µM | > 10 µM
4 | CCONC(=O)c1cnc(Nc2cnccn2)cc1Nc1ccc(C2CC2)cc1N(C)S(C)(=O)=O [Example 145, 4-((4-cyclopropyl-2-(N-methylmethanesulfonamido)phenyl)amino)-N-ethoxy-6-(pyrazin-2-ylamino)nicotinamide] | 0.000301 µM | – | > 10 µM | > 10 µM
5 | CCONC(=O)c1cnc(Nc2cccc(C)n2)cc1Nc1ccc(C2CC2)cc1N(C)S(C)(=O)=O [Example 146, 4-((4-cyclopropyl-2-(N-methylmethanesulfonamido)phenyl)amino)-N-ethoxy-6-((6-methylpyridin-2-yl)amino)nicotinamide] | – | 0.00252 µM | > 10 µM | > 10 µM

More lines, main results first:

Row | IC50 ([2]; Homo sapiens, U2OS) | IC50 [2] | SMILES | IC50 [1] | IC50 [3]
6 | 0.000618 µM | – | CCONC(=O)c1cnc(Nc2cc(C)nc(C)n2)cc1Nc1ccc(C)cc1N(C)S(C)(=O)=O [Example 133, 6-((2,6-dimethylpyrimidin-4-yl)amino)-N-ethoxy-4-((4-methyl-2-(N-methylmethanesulfonamido)phenyl)amino)nicotinamide] | > 10 µM | > 10 µM
7 | 0.00277 µM | – | CCONC(=O)c1cnc(Nc2cc(C)nc(C)n2)cc1Nc1ccc(N2CCOCC2)cc1N(C)S(C)(=O)=O [Example 134, 6-((2,6-dimethylpyrimidin-4-yl)amino)-N-ethoxy-4-((2-(N-methylmethanesulfonamido)-4-morpholinophenyl)amino)nicotinamide] | > 10 µM | > 10 µM
8 | 0.000601 µM | – | CCONC(=O)c1cnc(Nc2ccccn2)cc1Nc1ccc(C2CC2)cc1N(C)S(C)(=O)=O [Example 138, 4-((4-cyclopropyl-2-(N-methylmethanesulfonamido)phenyl)amino)-N-ethoxy-6-(pyridin-2-ylamino)nicotinamide] | > 10 µM | > 10 µM
9 | 0.0014 µM | – | CCONC(=O)c1cnc(NC(=O)C2CC2)cc1Nc1ccc(C2CC2)cc1N(C)S(C)(=O)=O [Example 139, 6-(cyclopropylcarboxamido)-4-((4-cyclopropyl-2-(N-methylmethanesulfonamido)phenyl)amino)-N-ethoxy nicotinamide] | > 10 µM | > 10 µM
10 | 0.000489 µM | – | C#Cc1ccc(Nc2cc(Nc3ccc(OC)cn3)ncc2C(=O)NOCC)c(N(C)S(C)(=O)=O)c1 [Example 141, N-ethoxy-4-((4-ethynyl-2-(N-methylmethanesulfonamido)phenyl)amino)-6-(5-methoxypyridin-2-ylamino)nicotinamide] | > 10 µM | > 10 µM
11 | 0.00041 µM | – | C#Cc1ccc(Nc2cc(Nc3ccc(C#N)cn3)ncc2C(=O)NOCC)c(N(C)S(C)(=O)=O)c1 [Example 142, 6-(5-cyanopyridin-2-ylamino)-N-ethoxy-4-((4-ethynyl-2-(N-methylmethanesulfonamido)phenyl)amino)nicotinamide] | > 10 µM | > 10 µM
